Converted amounts (≈) assume the structure as drawn.
Key:
Format in all cases: functional
[1] = system: Mycobacterium tuberculosis; assay: Antitubercular activity against Mycobacterium tuberculosis INH-R1 harboring katG Y155 truncated mutant after 5 days by fluorescence-based assay
[2] = system: Mycobacterium tuberculosis; assay: Antitubercular activity against Mycobacterium tuberculosis RIF-R1 harboring rpoB S522L mutant after 5 days by fluorescence-based assay
[3] = system: Mycobacterium tuberculosis; assay: Antitubercular activity against Mycobacterium tuberculosis FQ-R1 harboring gyrB D94N mutant after 5 days by fluorescence-based assay

Structure (SMILES) | MIC [1] | MIC [2] | MIC [3]
O=[N+]([O-])c1nccn1CCCCNc1ccnc2c(Cl)cccc12 | >200 µM | >200 µM | >200 µM
O=[N+]([O-])c1ncn(CCCCNc2ncnc3ccccc23)n1 | 200 µM (≈ 62.7 µg/mL) | >200 µM | >200 µM
C[C@H]1COc2c(N3CCN(C)CC3)c(F)cc3c(=O)c(C(=O)O)cn1c23.C[C@H]1COc2c(N3CCN(C)CC3)c(F)cc3c(=O)c(C(=O)O)cn1c23.O [LEVOFLOXACIN] | 1.1 µM | 0.85 µM | 14 µM
NNC(=O)c1ccncc1 [ISONIAZID] | >200 µM | 0.31 µM (≈ 0.0425 µg/mL) | 0.35 µM (≈ 0.048 µg/mL)
CO[C@H]1/C=C/O[C@@]2(C)Oc3c(C)c(O)c4c(O)c(c(/C=N/N5CCN(C)CC5)c(O)c4c3C2=O)NC(=O)/C(C)=C\C=C\[C@H](C)[C@H](O)[C@@H](C)[C@@H](O)[C@@H](C)[C@H](OC(C)=O)[C@@H]1C [RIFAMPIN] | 0.012 µM (≈ 0.00988 µg/mL) | 7.2 µM (≈ 5.93 µg/mL) | >0.04 µM
